Test results taken from US6482984B2 (priority 2000, dated 2002).

What was measured:
Type in all cases: in vivo
[1] = test system: Puccinia recondita; experiment: Curative activity against Puccinia recondita on wheat (leaf rust of wheat); conditions: 16 ppm active ingredient; wheat seedlings c.v. Kanzler; sprayed the day after infection (curative); 7 days in greenhouse; untreated plants infected to 95%
Experimental: (§1) The active ingredients were formulated as a 10% strength emulsion in a mixture of 63% by weight of cyclohexanone and 27% by weight of emulsifier and diluted to the desired concentration with water.
Leaves of potted wheat seedlings c.v. “Kanzler” were dusted with leaf rust spores (Puccinia recondita). The pots were then placed for 24 hours in a chamber with high atmospheric humidity (90 to 95%) at 20 to 22° C. During this time, the spores germinated, and the germinal tubes penetrated the leaf tissue. The next day, the infected plants were sprayed to run off point with an aqueous preparation of active ingredient which had been prepared using a stock solution of 10% of active ingredient, 63% of cyclohexanone and 27% of emulsifier. After the spray coating had dried on, the test plants were cultivated for 7 days in a greenhouse at 20-22° C. and a relative atmospheric humidity of 65-70%. The extent of rust development on the leaves was then determined.

[2] = test system: Pyricularia oryzae; conditions: 63 ppm active ingredient; rice seedlings c.v. Tai-Nong 67; inoculated the day after spraying (protective); 6 days; determined visually; untreated plants infected to 85%
[3] = test system: powdery mildew of wheat (Erysiphe graminis forma specialis tritici); experiment: Activity against powdery mildew of wheat (protective spray, potted wheat seedlings); conditions: 1 ppm active ingredient; wheat seedlings c.v. Frühgold; dusted with spores 24 hours after spraying; scored visually after 7 days; untreated plants infected to 90%
Experimental: as §1
Leaves of potted wheat seedlings c.v. “Frühgold” were sprayed to run off point with an aqueous preparation of active ingredient which had been prepared using a stock solution of 10% of active ingredient, 63% of cyclohexanone and 27% of emulsifier and, 24 hours after the spray coating had dried on, dusted with spores of powdery mildew of wheat (Erysiphe graminis forma specialis tritici). The test plants were subsequently placed in a greenhouse at 20-24° C. and 60-90% relative atmospheric humidity. After 7 days, the extent of the mildew development was scored visually in % infection of the total leaf area.

Row | Compound | extent of rust development on the leaves (infection) [1] | extent of the development of the infection on the leaves [2] | extent of the mildew development, % infection of the total leaf area [3]
1 | CNC(=O)/C(=N/OC)c1ccccc1COc1ccccc1C [compound A] | 60% | 25% | 60%
2 | CNC(=O)/C(=N/OC)c1ccccc1COc1ccc(OC(C)/C(C)=N/OC)cc1C (stereo not shown) [I-1, 2-Methoxyimino-2-{2-[4-(2-methoxyimino-1-methyl-propoxy)-2-methylphenoxymethyl]phenyl}-N-methyl-acetamide] |  |  | no infection
3 | CNC(=O)/C(=N/OC)c1ccccc1COc1ccc(/C(C)=N/OC)cc1C [compound B] | 25% | 40% | 25%
